# Legend:
# [1] = target: T1, proton pump (H+/K+-ATPase) (Sus scrofa, UniProt P19156); experiment: Inhibitory effects on proton pump (H+/K+-ATPase) activity; assay type: biochemical; settings: hog gastric vesicles, K+ stimulated H+/K+-ATPase activity, Pi at 620 nm, 30 minutes at 37° C.
# T1 construct: used as an enzyme source of the in vitro enzyme reaction assay of proton pump; from tissue; host or cells: hog gastric fundic mucosa; membrane vesicles, lyophilized
# Procedure: 1-1. Preparation of gastric proton pump vesicles
# The hog fundic regions containing parietal and peptic cells were scraped with slide-glass. The collected cells were suspended in 10 ml of 0.25M sucrose buffer and homogenized using a tight-fitting Teflon-glass homogenizer. The homogenate was centrifuged for 35 min at 8,000 rpm and the pellet was discarded. The supernatant was further centrifuged for 75 min at 25,000 rpm. The resulting pellets were re-suspended in the sucrose buffer (10 ml), and then the suspension was laid onto discontinuous density gradients consisting of 0.25M sucrose buffer and isolation medium containing 9% Ficoll (w/w). After being centrifuged for 3 hours and 15 minutes at 100,000×g, the material at the interface of sucrose buffer and Ficoll solution was collected and then centrifuged for 40 minutes at 100,000×g. The resulting pellets were re-suspended in 1 ml of 5 mM Hepes/Tris buffer (pH 6.1). This material was lyophilized and stored at −70° C. and used as an enzyme source of the in vitro enzyme reaction assay of proton pump.
# 1-2. Measurement of inhibitory effects on proton pump (H^+/K^+-ATPase) activity
# The inhibitory effects of the compounds of the present invention against proton pump activity were evaluated in 96-well plate. In this assay, the K^+specific H^+/K^+-ATPase activity was calculated based on the difference between the activity of H^+/K^30 -ATPase activity with K^30 and without K^30 ion. In 96-well plate, 1% dimethylsulfoxide (DMSO) in buffer was added to negative and positive control groups and the diluted compounds of the present invention in buffer were added to test group. All assays were performed in 100μl reaction volume at room temperature, and the hog gastric vesicle was kept in ice before use. At the beginning of the reaction, 10μl of reaction buffer containing 1% DMSO was added to the negative and positive control groups and to reaction buffer each concentration of compounds in the test group. Then lyophilized vesicle in 5mM Pipes/Tris buffer (pH 6.1) was pre-incubated in the presence of various concentrations of test compounds. After a 5 minute incubation, negative and positive buffers were respectively added to the previous reaction mixture. As the substrate, ATP was added to the reaction buffer, and incubated for 30 minutes at 37° C. Enzymatic activity was stopped by the addition of colorimetric reagent (2X malachite green, 1X ammonium molybdate, X polyvinyl alcohol, 2X H2O) and the amount of mono phosphate (Pi) in the reaction was measured at 620nm using the micro plate reader (Genios Pro, TECAN). The difference between the Pi production with K^+and without K^+is taken as K^+stimulated H^+/K^+-ATPase activity. The IC50s of test compounds were calculated from each % inhibition value of compounds using the method of Litchfield-Wilcoxon (J. Pharmacol. Exp. Ther. (1949) 96, 99).
# [2] = tested on: basal gastric acid secretion; experiment: Inhibitory effects on basal gastric acid secretion in pylorus-ligated rats (Shay's rat model); assay type: in vivo, Sprague Dawley (SD) rats; settings: oral, one hour before pylorus ligation, total acid output 5 hours after ligation, male SD rats
# Procedure: Test Example 2. Inhibitory effects on basal gastric acid secretion in pylorus-ligated rats. Inhibitory effects of the compounds of the present invention on basal gastric acid secretion were performed according to Shay's rat model (Shay, H., et al., 1945, gastroenterology, 5, 43-61). Male Sprague Dawley (SD) rats (200±10 g body weight) were divided into 3 groups (n=5) and fasted for 24 hours with free access to water. Control group was orally administered with 0.5% methylcellulose alone and the other groups were orally administered with test compounds suspended in 0.5% methyl-cellulose solution at doses of 1, 3 and 10 mg/kg/5 ml one hour before pylorus ligation. Under ether anesthesia, the abdomens of the rats were incised and then the pylorus was ligated. 5 hours after ligation, the animals were sacrificed, and the gastric contents were collected. The collected contents were centrifuged at 1,000×g for 10 minutes to obtain the gastric juice. Total acid output was measured by 0.01N NaOH volume (ueq/ml) for automatic titration of the gastric juice to pH 7.0 and the ED50s of test compounds were calculated using the Litchfield-Wilcoxon method. % inhibitory activity was calculated from the following equation and the results are shown in Table 2. %inhibitory activity of test compound=(total acid output of control group−total acid output of the group treated with test compounds)/total acid output of control group X 100
# hog gastric H+/K+-ATPase = target: T2, hog gastric H+/K+-ATPase (Sus scrofa, UniProt P19156); experiment: Reversible inhibition of hog gastric H+/K+-ATPase (Washout method); assay type: biochemical
# T2 construct: from tissue; host or cells: hog gastric fundic mucosa; gastric vesicles/microsomes, lyophilized
# T2 sequence (P19156 whole entry): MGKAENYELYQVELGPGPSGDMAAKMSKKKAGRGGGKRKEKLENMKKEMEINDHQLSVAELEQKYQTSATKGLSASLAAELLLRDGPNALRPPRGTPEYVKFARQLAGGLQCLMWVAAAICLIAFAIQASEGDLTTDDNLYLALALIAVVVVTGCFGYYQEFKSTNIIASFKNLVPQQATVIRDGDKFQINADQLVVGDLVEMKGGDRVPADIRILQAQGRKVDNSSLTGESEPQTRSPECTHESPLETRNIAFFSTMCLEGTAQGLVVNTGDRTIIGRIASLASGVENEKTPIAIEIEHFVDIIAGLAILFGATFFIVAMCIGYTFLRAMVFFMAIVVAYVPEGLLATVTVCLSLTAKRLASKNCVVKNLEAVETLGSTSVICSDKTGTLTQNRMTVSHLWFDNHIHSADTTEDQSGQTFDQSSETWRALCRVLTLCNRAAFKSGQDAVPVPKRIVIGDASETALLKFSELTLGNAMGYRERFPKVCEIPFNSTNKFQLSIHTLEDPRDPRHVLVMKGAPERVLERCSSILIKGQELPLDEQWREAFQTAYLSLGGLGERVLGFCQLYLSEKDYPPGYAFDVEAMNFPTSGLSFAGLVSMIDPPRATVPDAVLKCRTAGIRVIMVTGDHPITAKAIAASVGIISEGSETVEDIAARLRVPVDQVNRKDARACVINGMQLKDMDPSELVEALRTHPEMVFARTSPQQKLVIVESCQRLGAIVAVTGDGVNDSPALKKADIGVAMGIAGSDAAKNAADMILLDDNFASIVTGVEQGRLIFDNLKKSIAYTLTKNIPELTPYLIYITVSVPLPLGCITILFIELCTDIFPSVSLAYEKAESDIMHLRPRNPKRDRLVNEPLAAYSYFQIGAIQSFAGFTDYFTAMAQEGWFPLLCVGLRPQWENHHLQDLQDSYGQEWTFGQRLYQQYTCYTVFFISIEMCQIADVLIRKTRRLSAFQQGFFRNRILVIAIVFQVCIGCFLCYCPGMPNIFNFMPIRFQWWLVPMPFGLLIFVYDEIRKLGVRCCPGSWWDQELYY
# T2 sequence (P18434 whole entry partner): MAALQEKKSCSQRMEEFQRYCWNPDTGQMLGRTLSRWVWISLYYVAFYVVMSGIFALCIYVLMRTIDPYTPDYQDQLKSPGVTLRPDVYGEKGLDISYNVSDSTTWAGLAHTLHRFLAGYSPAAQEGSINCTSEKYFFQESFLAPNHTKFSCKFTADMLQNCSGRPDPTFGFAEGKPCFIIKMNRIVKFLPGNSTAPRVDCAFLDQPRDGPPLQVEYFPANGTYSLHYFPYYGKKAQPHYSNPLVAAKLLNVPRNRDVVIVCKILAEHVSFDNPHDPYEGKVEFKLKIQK
# Procedure: Gastric vesicles were prepared from hog fundic mucosa using the method of Saccomani et al. (Saccomani G, Stewart H B, Shqw D, Lewin M and Sachs G, Characterization of gastric mucosal membranes. IX. Fraction and purification of K-ATPase-containing vesicles by zonal centrifugation and free-flow electrophoresis techinque. Biochem. Biophy. Acta.(BBA)—Biomembranes 465, 311-330, 1977.). This material was lyophilized and stored at −70° C. The protein content of gastric vesicles was determined by the Bradford method using bovine serum albumin as a standard (Bradford M M, A rapid and sensitive method for the quantitation of microgram quantities of protein utilizing the principle of protein-dye binding. Anal Biochem. 72, 248-254, 1976).
# Activity of H^+/K^+-ATPase in hog microsome (lyophilized vesicle) was measured by the inorganic phosphate released from ATP using an one-step colorimetric detection method at the concentration at which the test compounds have 50% inhibition of the proton pump (Chan K M, Delfert D, and Junger K D, A direct colorimetric assay for Ca^2+-stimulated ATPase activity. Anal Biochem, 157, 375-380, 1986). […]
# T1 sequence (P19156 whole entry): as the sequence (P19156 whole entry) above
# T1 sequence (P18434 whole entry partner): as the sequence (P18434 whole entry partner) above
IC50 [1] [µM],"inhibition of H+/K+-ATPase activity after washout (hog gastric H+/K+-ATPase; after washout, compared with non-treated group)","inhibition of H+/K+-ATPase activity before washout (hog gastric H+/K+-ATPase; before washout, test compound at the concentration at which it has 50% inhibition) [%]",Structure (SMILES),ED50 [2] [mg/kg]
0.01,,,"Cc1c(C)n(Cc2ccccc2)c2c(OCc3ccc(F)cc3)cncc12.Cl [Example 12, 1-benzyl-7-(4-fluorobenzyloxy)-2,3-dimethyl-1H-pyrrolo[3,2-c]pyridine hydrochloride]",3.3
0.01,,,"CCCn1c(C)c(C)c2cncc(OCc3ccc(F)cc3)c21.Cl [Example 16, 7-(4-fluorobenzyloxy)-2,3-dimethyl-1-propyl-1H-pyrrolo[3,2-c]pyridine hydrochloride]",1.8
0.01,,,"COCCn1c(C)c(C)c2cncc(OCc3ccc(F)cc3)c21.Cl [Example 17, 7-(4-fluorobenzyloxy)-1-(2-methoxyethyl)-2,3-dimethyl-1H-pyrrolo[3,2-c]pyridine hydrochloride]",3.3
0.19,did not inhibit,50,"CCCn1c(C)c(C)c2cncc(N3CCc4ccccc4C3)c21.Cl [Example 38, 2-(2,3-dimethyl-1-propyl-1H-pyrrolo[3,2-c]pyridin-7-yl)-1,2,3,4-tetrahydroisoquinoline hydrochloride]",

# Source: patent US7541366B2, “Pyrrolo[3,2-c]pyridine derivatives and processes for the preparation thereof” (YUHAN Corporation, priority 2004, dated 2009)
